Drawing on ChEMBL document CHEMBL5360653, “Marine Alkaloid Lepadins E and H Induce Ferroptosis for Cancer Chemotherapy” (J Med Chem, 2023), this text covers Activity, viability and IC50 for two compounds.

Data set [1] has as its system HeLa. Description: Induction of apoptosis in human HeLa cells assessed as early apoptotic cells incubated at 4 uM for 24 hrs measured by annexin V-PI staining based FITC analysis (reference value: 3.59%). Format: functional.
The subject of data set [2] is HeLa. Kind of data set: Induction of apoptosis in human HeLa cells assessed as necrotic cells incubated at 4 uM for 24 hrs measured by annexin V-PI staining based FITC analysis (reference value: 0.70%). Format: functional.
The subject of data set [3] is HeLa. Description: Induction of apoptosis in human HeLa cells assessed as necrotic cells incubated at 6 uM for 24 hrs measured by annexin V-PI staining based FITC analysis (reference value: 0.70%). Format: functional.
The test system of data set [4] is HeLa. Description: Induction of apoptosis in human HeLa cells assessed as late apoptotic cells incubated at 8 uM for 24 hrs measured by annexin V-PI staining based FITC analysis (reference value: 1.81%). Format: functional.
Data set [5] has as its system HeLa. Kind of data set: Induction of apoptosis in human HeLa cells assessed as early apoptotic cells incubated at 10 uM for 24 hrs measured by annexin V-PI staining based FITC analysis (reference value: 3.59%). It is filed as functional.
Data set [6] relates to HeLa. Kind of data set: Induction of apoptosis in human HeLa cells assessed as early apoptotic cells incubated at 10 uM for 24 hrs measured by annexin V-PI staining based FITC analysis (reference value: 2.72%). It is filed as functional.
Data set [7] concerns HeLa. Kind of data set: Induction of apoptosis in human HeLa cells assessed as late apoptotic cells incubated at 10 uM for 24 hrs measured by annexin V-PI staining based FITC analysis (reference value: 2.3%). Format: functional.
For data set [8], the system named is HeLa. Kind of data set: Induction of apoptosis in human HeLa cells assessed as necrotic cells incubated at 10 uM for 24 hrs measured by annexin V-PI staining based FITC analysis (reference value: 0.79%). Format: functional.
The test system of data set [9] is HeLa. Description: Induction of apoptosis in human HeLa cells assessed as viable cells preincubated with PFTalpha followed by compound addition at 10 uM for 24 hrs measured by annexin V-PI staining based FITC analysis (reference value: 94.2%). It is filed as functional. The conditions noted are these: read-out: Activity.
Data set [10] relates to HeLa. Kind of data set: Induction of apoptosis in human HeLa cells assessed as necrotic cells preincubated with PFTalpha followed by compound addition at 10 uM for 24 hrs measured by annexin V-PI staining based FITC analysis (reference value: 0.79%). Format: functional.
In data set [11] the test system is HeLa. Description: Induction of ROS generation in human HeLa cells assessed as increase in ROS level at 10 uM incubated for 0.5 hrs (reference value: 39.6%). It is filed as functional.
In data set [12] the test system is HeLa. Kind of data set: Induction of ferroptosis in human HeLa cells assessed as decrease in cellular GSH level measured at 4 uM for 24 hrs by transmission electron microscopic analysis. It is filed as functional, cell-based.
For data set [13], the system named is HeLa. Description: Induction of ferroptosis in human HeLa cells assessed as reduction of mitochondrion volume measured at 6 uM for 24 hrs by transmission electron microscopic analysis. Format: functional, cell-based.
Data set [14] relates to HeLa. Description: Induction of ferroptosis in human HeLa cells assessed as disappearance of mitochondrial cristae measured at 6 uM for 24 hrs by transmission electron microscopic analysis. It is filed as functional, cell-based.
The subject of data set [15] is B16-F10. Description: Cytotoxicity against mouse B16-F10 cells incubated for 72 hrs by MTT assay. It is filed as functional, cell-based. The conditions noted are these: B16-F10, 72 h.
The test system of data set [16] is B16-F10. Description: Induction of ferroptosis in mouse B16-F10 cells assessed as downregulation of SLC7A11 level measured at 4 to 10 uM by Western blotting analysis. It is filed as functional, cell-based. The conditions noted are these: dose 4-10 µM. On the technique in general: A western blot detects proteins with antibodies after separation by electrophoresis.

For data set [17], the system named is B16-F10. Kind of data set: Induction of ferroptosis in mouse B16-F10 cells assessed as increase in ACSL4 level measured at 4 to 10 uM by Western blotting analysis. It is filed as functional, cell-based. To be noted: dose 4-10 µM.
A short description of data set [18]: Toxicity in immunocompetent C57BL/6J mouse allografted with B16-F10 cells assessed as change of organ index in spleen administered at 30 mg/kg, ip daily for 14 days by hematoxylin and eosin staining analysis. The conditions noted are these: in vivo, 336 h, time 14 day. Format: organism-based.
The nature of data set [19]: Toxicity in immunocompetent C57BL/6J mouse allografted with B16-F10 cells assessed as change of organ index in liver administered at 30 mg/kg, ip daily for 14 days by hematoxylin and eosin staining analysis. Format: organism-based. The conditions noted are these: in vivo, 336 h, time 14 day.
Data set [20] in a line: Toxicity in immunocompetent C57BL/6J mouse allografted with B16-F10 cells assessed as tissue damage in spleen administered at 30 mg/kg, ip daily for 14 days by hematoxylin and eosin staining analysis. Format: organism-based. The conditions noted are these: in vivo, 336 h, time 14 day.
Data set [21] deals with HeLa. Kind of data set: Induction of apoptosis in human HeLa cells assessed as early apoptotic cells incubated at 4 uM for 24 hrs measured by annexin V-PI staining based FITC analysis (reference value: 3.94%). Format: functional.
Data set [22] relates to HeLa. Kind of data set: Induction of apoptosis in human HeLa cells assessed as late apoptotic cells incubated at 4 uM for 24 hrs measured by annexin V-PI staining based FITC analysis (reference value: 1.54%). Format: functional.
Data set [23] relates to HeLa. Kind of data set: Induction of apoptosis in human HeLa cells assessed as early apoptotic cells incubated at 6 uM for 24 hrs measured by annexin V-PI staining based FITC analysis (reference value: 3.94%). Format: functional.
The subject of data set [24] is HeLa. Description: Induction of apoptosis in human HeLa cells assessed as late apoptotic cells incubated at 6 uM for 24 hrs measured by annexin V-PI staining based FITC analysis (reference value: 1.54%). Format: functional.
Data set [25] deals with HeLa. Description: Induction of apoptosis in human HeLa cells assessed as necrotic cells incubated at 8 uM for 24 hrs measured by annexin V-PI staining based FITC analysis (reference value: 0.58%). Format: functional.
Data set [26] deals with HeLa. Kind of data set: Induction of apoptosis in human HeLa cells assessed as late apoptotic cells incubated at 10 uM for 24 hrs measured by annexin V-PI staining based FITC analysis (reference value: 1.54%). Format: functional.
Data set [27] relates to HeLa. Kind of data set: Induction of apoptosis in human HeLa cells assessed as early apoptotic cells incubated at 10 uM for 24 hrs measured by annexin V-PI staining based FITC analysis (reference value: 3.28%). Format: functional.
Data set [28] concerns HeLa. Description: Induction of apoptosis in human HeLa cells assessed as necrotic cells incubated at 10 uM for 24 hrs measured by annexin V-PI staining based FITC analysis (reference value: 1.6%). Format: functional.
For data set [29], the system named is HeLa. Description: Induction of apoptosis in human HeLa cells assessed as viable cells preincubated with PFTalpha followed by compound addition at 10 uM for 24 hrs measured by annexin V-PI staining based FITC analysis (reference value: 91.6%). The conditions noted are these: read-out: Activity. Format: functional.
Data set [30] relates to HeLa. Description: Induction of ROS generation in human HeLa cells assessed as increase in ROS level at 10 uM incubated for 0.5 hrs (reference value: 37.8%). Format: functional.
The test system of data set [31] is HeLa. Description: Induction of ROS generation in human HeLa cells assessed as increase in ROS level at 20 uM incubated for 1 hrs (reference value: 37.8%). It is filed as functional.

As usually defined, the pIC50 is the IC50 on a negative log10 scale, so that one unit is a factor of ten. Low readings indicate a large IC50, high ones a small IC50.

Molecules are shown by their SMILES. pIC50: −log10 of the molar value. Calls of active or inactive are those of the source. The rule behind the calls is not given here.

With `CCC/C=C/C=C/C(=O)O[C@@H]1C[C@H]2[C@@H](CCCC[C@H](O)CCC)CCC[C@H]2N[C@H]1C`, the Activity in [1] is recorded as 4.56%; in data set [2], 1.14%; in data set [3] it was 0.94%; in data set [4], 2.28%; in data set [5], 66.3%; in [6], 31.8%. Moreover, the Activity is on record as 45.3% in data set [7]; 2.34% in data set [8]; 3.94% in data set [10]; 77.7% in [11]; “Non-Toxic” in [18]; “Non-Toxic” in data set [19]. The Activity entry in [20] is on record as “Non-Toxic”. Moreover, in data set [9], the viability at 10 µM was 46%. In addition, the result in data set [12], in data set [13], in data set [14], in [16] and in [17] was Active. Moreover, in [15], the pIC50 was 5.50.
As to `CCCCC/C=C/C(=O)O[C@@H]1C[C@H]2[C@@H](CCCC[C@H](O)CCC)CCC[C@H]2N[C@H]1C`, the Activity was determined as 5.32% in data set [21]; 2.73% in data set [22]; 30.6% in data set [23]; 3.62% in [24]; 3.09% in data set [25]; 27.3% in data set [26]. Also, the Activity came out at 35.6% in data set [27], 5.06% in data set [28], 55.1% in data set [30] and 86.9% in [31]. Moreover, in data set [29], the viability at 10 µM was 36.4%.
